Measured values: US8076487B2, “Pyridone derivative and herbicide” (Kumiai Chemical Industry Co., Ltd., priority 2006, dated 2011)

Assays:
Type in all cases: in vivo
[1] = system: velvetleaf (Abutilon theophrasti medicus); assay: Test Example 3: herbicidal effect by application to upland field (foliage treatment); conditions: foliage treatment, plants grown two weeks, 1,000 g active ingredient per hectare, 14th day after application
In short: (§1)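 Foliage treatment, greenhouse: 2-week-old plants in field soil; wettable powder in water sprayed over the top at 1,000 g a.i./ha (1,000 L/ha); rating on day 14 post-application.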

[2] = system: green foxtail (Setaria viridis (L.) P. Beauv.); assay: as above; conditions: foliage treatment, plants grown two weeks, 1,000 g active ingredient per hectare, 14th day after application
In short: as §1

[3] = system: barnyardgrass (Echinochloa crus-galli (L.) P. Beauv. var. crus-galli); assay: as above; conditions: foliage treatment, plants grown two weeks, 1,000 g active ingredient per hectare, 14th day after application
In short: as §1

[4] = system: slender amaranth (Amaranthus viridis L.); assay: as above; conditions: foliage treatment, plants grown two weeks, 1,000 g active ingredient per hectare, 14th day after application
In short: as §1

[5] = system: velvetleaf (Abutilon theophrasti medicus); assay: Test Example 2: herbicidal effect by soil application to upland field; conditions: soil surface spray, upland field soil, 1,000 g active ingredient per hectare, 21st day after application
In short: (§2)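 Soil-applied wettable powder, 1,000 g a.i./ha, sprayed after sowing onto covered field soil. Effect rated on a standard scale 21 days later in a greenhouse.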

[6] = system: green foxtail (Setaria viridis (L.) P. Beauv.); assay: as above; conditions: soil surface spray, upland field soil, 1,000 g active ingredient per hectare, 21st day after application
In short: as §2

[7] = system: barnyardgrass (Echinochloa crus-galli (L.) P. Beauv. var. crus-galli); assay: as above; conditions: soil surface spray, upland field soil, 1,000 g active ingredient per hectare, 21st day after application
In short: as §2

[8] = system: slender amaranth (Amaranthus viridis L.); assay: as above; conditions: soil surface spray, upland field soil, 1,000 g active ingredient per hectare, 21st day after application
In short: as §2

[9] = system: Japanese bulrush (Scirpus juncoides Roxb.); assay: Test Example 1: herbicidal effect by soil application to paddy field; conditions: paddy field soil application; active ingredient 1,000 g per 1 hectare; wettable powder added dropwise to water surface the day after sowing; examined on the 21st day after application
In short: (§3)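 Under greenhouse conditions, seeds sown on puddled paddy soil in 100 cm2 pots under 3 cm of standing water received the test compound; injury was assessed with a standard scoring scheme three weeks (day 21) after treatment.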

[10] = system: heartshape false pickerelweed (Monochoria vaginalis (Burm.f.) C.Presl); assay: as above; conditions: paddy field soil application; active ingredient 1,000 g per 1 hectare; wettable powder added dropwise to water surface the day after sowing; examined on the 21st day after application
In short: as §3

[11] = system: early watergrass (Echinochloa oryzicola Vasing); assay: as above; conditions: paddy field soil application; active ingredient 1,000 g per 1 hectare; wettable powder added dropwise to water surface the day after sowing; examined on the 21st day after application
In short: as §3

Row | SMILES | herbicidal effect (index), Velvetleaf [1] | herbicidal effect (index), Green Foxtail [2] | herbicidal effect (index), Barnyardgrass [3] | herbicidal effect (index), Slender Amaranth [4] | herbicidal effect (index), Velvetleaf [5] | herbicidal effect (index), Green Foxtail [6] | herbicidal effect (index), Barnyardgrass [7] | herbicidal effect (index), Slender Amaranth [8] | herbicidal effect, Scirpus juncoides Roxb. [9] | herbicidal effect, Monochoria vaginalis (Burm. f.) C. Presl [10] | herbicidal effect, Echinochloa oryzicola Vasing [11]
1 | C=CCn1c(C(F)(F)F)ccc(C(=O)C2=C(O)CCCC2=O)c1=O [I-11] | 5 (90% or more of herbicidal effect and crop phytotoxicity) | 5 (90% or more of herbicidal effect and crop phytotoxicity) | 5 (90% or more of herbicidal effect and crop phytotoxicity) | 5 (90% or more of herbicidal effect and crop phytotoxicity) | 5 (90% or more of herbicidal effect and crop phytotoxicity) | 4 (70 to less than 90% of herbicidal effect and crop phytotoxicity) | 5 (90% or more of herbicidal effect and crop phytotoxicity) | 5 (90% or more of herbicidal effect and crop phytotoxicity) | 5 (90% or more of herbicidal effect and crop phytotoxicity) | 5 (90% or more of herbicidal effect and crop phytotoxicity) | 5 (90% or more of herbicidal effect and crop phytotoxicity)
2 | O=C1CCCC(O)=C1C(=O)c1ccc(C(F)(F)F)n(C2CC2)c1=O [I-16] | 5 (90% or more of herbicidal effect and crop phytotoxicity) | 5 (90% or more of herbicidal effect and crop phytotoxicity) | 5 (90% or more of herbicidal effect and crop phytotoxicity) | 5 (90% or more of herbicidal effect and crop phytotoxicity) | 5 (90% or more of herbicidal effect and crop phytotoxicity) | 5 (90% or more of herbicidal effect and crop phytotoxicity) | 5 (90% or more of herbicidal effect and crop phytotoxicity) | 5 (90% or more of herbicidal effect and crop phytotoxicity) | 5 (90% or more of herbicidal effect and crop phytotoxicity) | 5 (90% or more of herbicidal effect and crop phytotoxicity) | 5 (90% or more of herbicidal effect and crop phytotoxicity)
3 | O=C1CCCC(O)=C1C(=O)c1ccc(C(F)(F)F)n(C2CCCC2)c1=O [I-18] | 5 (90% or more of herbicidal effect and crop phytotoxicity) | 5 (90% or more of herbicidal effect and crop phytotoxicity) | 5 (90% or more of herbicidal effect and crop phytotoxicity) | 5 (90% or more of herbicidal effect and crop phytotoxicity) | 5 (90% or more of herbicidal effect and crop phytotoxicity) | 5 (90% or more of herbicidal effect and crop phytotoxicity) | 5 (90% or more of herbicidal effect and crop phytotoxicity) | 5 (90% or more of herbicidal effect and crop phytotoxicity) | 5 (90% or more of herbicidal effect and crop phytotoxicity) | 5 (90% or more of herbicidal effect and crop phytotoxicity) | 5 (90% or more of herbicidal effect and crop phytotoxicity)
4 | O=C1CCCC(O)=C1C(=O)c1ccc(C(F)(F)F)n(CC2CC2)c1=O [I-20] | 5 (90% or more of herbicidal effect and crop phytotoxicity) | 5 (90% or more of herbicidal effect and crop phytotoxicity) | 5 (90% or more of herbicidal effect and crop phytotoxicity) | 5 (90% or more of herbicidal effect and crop phytotoxicity) | 5 (90% or more of herbicidal effect and crop phytotoxicity) | 5 (90% or more of herbicidal effect and crop phytotoxicity) | 5 (90% or more of herbicidal effect and crop phytotoxicity) | 5 (90% or more of herbicidal effect and crop phytotoxicity) | 5 (90% or more of herbicidal effect and crop phytotoxicity) | 5 (90% or more of herbicidal effect and crop phytotoxicity) | 5 (90% or more of herbicidal effect and crop phytotoxicity)
5 | O=C1CCCC(O)=C1C(=O)c1ccc(C(F)(F)F)n(CCC=C(Cl)Cl)c1=O [I-26] | 5 (90% or more of herbicidal effect and crop phytotoxicity) | 4 (70 to less than 90% of herbicidal effect and crop phytotoxicity) | 4 (70 to less than 90% of herbicidal effect and crop phytotoxicity) | 5 (90% or more of herbicidal effect and crop phytotoxicity) | 5 (90% or more of herbicidal effect and crop phytotoxicity) | 5 (90% or more of herbicidal effect and crop phytotoxicity) | 5 (90% or more of herbicidal effect and crop phytotoxicity) | 5 (90% or more of herbicidal effect and crop phytotoxicity) | 5 (90% or more of herbicidal effect and crop phytotoxicity) | 5 (90% or more of herbicidal effect and crop phytotoxicity) | 5 (90% or more of herbicidal effect and crop phytotoxicity)
6 | COCCn1c(C(F)(F)F)ccc(C(=O)C2=C(O)CCCC2=O)c1=O [I-31] | 5 (90% or more of herbicidal effect and crop phytotoxicity) | 5 (90% or more of herbicidal effect and crop phytotoxicity) | 5 (90% or more of herbicidal effect and crop phytotoxicity) | 5 (90% or more of herbicidal effect and crop phytotoxicity) | 5 (90% or more of herbicidal effect and crop phytotoxicity) | 5 (90% or more of herbicidal effect and crop phytotoxicity) | 5 (90% or more of herbicidal effect and crop phytotoxicity) | 5 (90% or more of herbicidal effect and crop phytotoxicity) | 5 (90% or more of herbicidal effect and crop phytotoxicity) | 5 (90% or more of herbicidal effect and crop phytotoxicity) | 5 (90% or more of herbicidal effect and crop phytotoxicity)
7 | CCOCCn1c(C(F)(F)F)ccc(C(=O)C2=C(O)CCCC2=O)c1=O [I-32] | 5 (90% or more of herbicidal effect and crop phytotoxicity) | 5 (90% or more of herbicidal effect and crop phytotoxicity) | 5 (90% or more of herbicidal effect and crop phytotoxicity) | 5 (90% or more of herbicidal effect and crop phytotoxicity) | 5 (90% or more of herbicidal effect and crop phytotoxicity) | 5 (90% or more of herbicidal effect and crop phytotoxicity) | 5 (90% or more of herbicidal effect and crop phytotoxicity) | 5 (90% or more of herbicidal effect and crop phytotoxicity) | 5 (90% or more of herbicidal effect and crop phytotoxicity) | 5 (90% or more of herbicidal effect and crop phytotoxicity) | 5 (90% or more of herbicidal effect and crop phytotoxicity)
8 | COCC(C)n1c(C(F)(F)F)ccc(C(=O)C2=C(O)CCCC2=O)c1=O (stereo not shown) [I-33] | 5 (90% or more of herbicidal effect and crop phytotoxicity) | 4 (70 to less than 90% of herbicidal effect and crop phytotoxicity) | 5 (90% or more of herbicidal effect and crop phytotoxicity) | 5 (90% or more of herbicidal effect and crop phytotoxicity) | 5 (90% or more of herbicidal effect and crop phytotoxicity) | 3 (50 to less than 70% of herbicidal effect and crop phytotoxicity) | 5 (90% or more of herbicidal effect and crop phytotoxicity) | 5 (90% or more of herbicidal effect and crop phytotoxicity) | 5 (90% or more of herbicidal effect and crop phytotoxicity) | 5 (90% or more of herbicidal effect and crop phytotoxicity) | 5 (90% or more of herbicidal effect and crop phytotoxicity)
